# Results published in ChEMBL document CHEMBL1201862, “PubChem BioAssay data set” (2004).
#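 How tested: cells in 96-well plates exposed to compound for 48 hours at five concentrations. GI50 is the concentration that inhibits growth by half.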 Activity calls are given as the source filed them. No stated cut-off is given here; in the data, active = GI50 up to about 1.1 µM and inactive = higher.
# Experiments:
# Test in all cases: NCI anticancer screen, dose series, 48 h
# [1] = test system: HCT-15
# [2] = test system: OVCAR-4
# [3] = test system: A498
# [4] = test system: IGROV-1
# [5] = test system: SF-295
# [6] = test system: COLO 205
# [7] = test system: NCI-H460
# [8] = test system: NCI-H23
# [9] = test system: CCRF-CEM
# [10] = test system: UACC-257
# [11] = test system: MDA-N
# [12] = test system: NCI-H522
# [13] = test system: SF-268
# [14] = test system: SNB-75
# [15] = test system: M14
# [16] = test system: OVCAR-5
# [17] = test system: MOLT-4
# [18] = test system: PC-3
# [19] = test system: HOP-92
# [20] = test system: CAKI-1
# [21] = test system: NCI-H226
# [22] = test system: A549
# [23] = test system: HOP-62
# [24] = test system: SNB-19
# [25] = test system: DU-145
# [26] = test system: SK-MEL-2
# [27] = test system: 786-0
# [28] = test system: NCI/ADR-RES
# [29] = test system: EKVX
# [30] = test system: Hs-578T
# [31] = test system: BT-549
# [32] = test system: UACC-62
# [33] = test system: MCF7
# [34] = test system: TK-10
# [35] = test system: HCT-116
# [36] = test system: MDA-MB-231
# [37] = test system: Malme-3M
# [38] = test system: MDA-MB-435
# [39] = test system: UO-31
# [40] = test system: RXF 393
# [41] = test system: SW-620
# [42] = test system: OVCAR-8
# [43] = test system: SF-539
# [44] = test system: SK-MEL-28
# [45] = test system: KM12
# [46] = test system: SK-OV-3
# [47] = test system: LOX IMVI
# [48] = test system: SR
# [49] = test system: SK-MEL-5
# [50] = test system: K562
# [51] = test system: HT-29
# [52] = test system: SN12C
# [53] = test system: U-251
# [54] = test system: HL-60
# [55] = test system: T47D
# [56] = test system: ACHN
# [57] = test system: OVCAR-3
# [58] = test system: RPMI-8226
smiles,measurement,setting,value
Cc1cc(C)c2c(n1)S(=O)(=O)N(CCCN1CCN(c3cccc(C(F)(F)F)c3)CC1)C(C(=O)c1ccccc1)=C2O,GI50,[1],4.62 µM
same,GI50,[2],4.66 µM (inactive)
same,GI50,[3],8.57 µM (inactive)
same,GI50,[4],5.66 µM (inactive)
same,GI50,[5],4.11 µM (inactive)
same,GI50,[6],3.31 µM (inactive)
same,GI50,[7],4.66 µM (inactive)
same,GI50,[8],5.06 µM (inactive)
same,GI50,[9],5.19 µM (inactive)
same,GI50,[10],5.66 µM (inactive)
same,GI50,[11],5.5 µM (inactive)
same,GI50,[12],4 µM (inactive)
same,GI50,[13],8.51 µM (inactive)
same,GI50,[14],3.48 µM (inactive)
same,GI50,[15],7.36 µM (inactive)
same,GI50,[16],7.36 µM (inactive)
same,GI50,[17],2.67 µM (inactive)
same,GI50,[18],9.82 µM (inactive)
same,GI50,[19],5.19 µM (inactive)
same,GI50,[20],2.79 µM (inactive)
same,GI50,[21],1.03 µM (active)
same,GI50,[22],4.55 µM (inactive)
same,GI50,[23],8.38 µM (inactive)
same,GI50,[24],5.53 µM (inactive)
same,GI50,[25],13.4 µM (inactive)
same,GI50,[26],17.3 µM (inactive)
same,GI50,[27],4.48 µM (inactive)
same,GI50,[28],3.21 µM (inactive)
same,GI50,[29],4 µM (inactive)
same,GI50,[30],17.6 µM (inactive)
same,GI50,[31],16 µM (inactive)
same,GI50,[32],10.2 µM (inactive)
same,GI50,[33],7.13 µM (inactive)
same,GI50,[34],10.5 µM (inactive)
same,GI50,[35],4.38 µM (inactive)
same,GI50,[36],20.3 µM (inactive)
same,GI50,[37],18.4 µM (inactive)
same,GI50,[38],6.11 µM (inactive)
same,GI50,[39],5.42 µM (inactive)
same,GI50,[40],5.73 µM (inactive)
same,GI50,[41],4.13 µM (inactive)
same,GI50,[42],5.66 µM (inactive)
same,GI50,[43],10.1 µM (inactive)
same,GI50,[44],9.64 µM (inactive)
same,GI50,[45],5.02 µM (inactive)
same,GI50,[46],20 µM (inactive)
same,GI50,[47],3.03 µM (inactive)
same,GI50,[48],2.93 µM (inactive)
same,GI50,[49],2.93 µM (inactive)
same,GI50,[50],3.69 µM (inactive)
same,GI50,[51],5.22 µM (inactive)
same,GI50,[52],4.55 µM (inactive)
same,GI50,[53],5.4 µM (inactive)
same,GI50,[54],2.61 µM (inactive)
same,GI50,[55],13.1 µM (inactive)
same,GI50,[56],9.04 µM (inactive)
same,GI50,[57],4.18 µM (inactive)
COc1c(Cl)ccc(Cl)c1C(=O)NNC(=O)c1c(Cl)c(Cl)c(Cl)c(Cl)c1-c1nc2cc(C(=O)c3ccccc3)ccc2[nH]1,GI50,[1],35 µM
same,GI50,[2],44.9 µM (inactive)
same,GI50,[3],61.2 µM (inactive)
same,GI50,[4],31 µM (inactive)
same,GI50,[5],34.9 µM (inactive)
same,GI50,[6],47.4 µM (inactive)
same,GI50,[8],64.1 µM (inactive)
same,GI50,[9],28.8 µM (inactive)
same,GI50,[10],76.6 µM (inactive)
same,GI50,[11],33.3 µM (inactive)
same,GI50,[12],33.1 µM (inactive)
same,GI50,[13],34.3 µM (inactive)
same,GI50,[14],> 100 µM (inactive)
same,GI50,[15],52.6 µM (inactive)
same,GI50,[16],> 100 µM (inactive)
same,GI50,[17],20.6 µM (inactive)
same,GI50,[18],37.8 µM (inactive)
same,GI50,[19],52.6 µM (inactive)
same,GI50,[20],95.3 µM (inactive)
same,GI50,[58],24.2 µM (inactive)
same,GI50,[21],45.6 µM (inactive)
same,GI50,[22],56 µM (inactive)
same,GI50,[23],82 µM (inactive)
same,GI50,[24],> 100 µM (inactive)
same,GI50,[25],> 100 µM (inactive)
same,GI50,[26],31.9 µM (inactive)
same,GI50,[27],72.4 µM (inactive)
same,GI50,[28],> 100 µM (inactive)
same,GI50,[29],36.8 µM (inactive)
same,GI50,[30],54.1 µM (inactive)
same,GI50,[31],67.3 µM (inactive)
same,GI50,[33],44.4 µM (inactive)
same,GI50,[34],72.3 µM (inactive)
same,GI50,[35],66.7 µM (inactive)
same,GI50,[36],37.6 µM (inactive)
same,GI50,[37],54.3 µM (inactive)
same,GI50,[38],42.9 µM (inactive)
same,GI50,[39],60.4 µM (inactive)
same,GI50,[40],19.5 µM (inactive)
same,GI50,[41],> 100 µM (inactive)
same,GI50,[42],72.9 µM (inactive)
same,GI50,[43],> 100 µM (inactive)
same,GI50,[44],84.7 µM (inactive)
same,GI50,[45],80.5 µM (inactive)
same,GI50,[46],> 100 µM (inactive)
same,GI50,[47],55.1 µM (inactive)
same,GI50,[48],37.2 µM (inactive)
same,GI50,[49],25.2 µM (inactive)
same,GI50,[50],26.7 µM (inactive)
same,GI50,[51],62.1 µM (inactive)
same,GI50,[52],70.8 µM (inactive)
same,GI50,[53],53.2 µM (inactive)
same,GI50,[54],50.5 µM (inactive)
same,GI50,[55],15.5 µM (inactive)
same,GI50,[56],37.5 µM (inactive)
same,GI50,[57],30.5 µM (inactive)
C[n+]1c(-c2ccc(/C=N\N3CCN(/N=C/c4ccc(-c5cn6ccccc6[n+]5C)cc4)CC3)cc2)cn2ccccc21,GI50,[1],88.3 µM
same,GI50,[2],74.6 µM (inactive)
same,GI50,[3],16.2 µM (inactive)
same,GI50,[4],57.9 µM (inactive)
same,GI50,[5],19.1 µM (inactive)
same,GI50,[6],27.1 µM (inactive)
same,GI50,[7],58.6 µM (inactive)
same,GI50,[8],27.8 µM (inactive)
same,GI50,[9],34.2 µM (inactive)
same,GI50,[10],5.24 µM (inactive)
same,GI50,[11],36.2 µM (inactive)
same,GI50,[12],83.9 µM (inactive)
same,GI50,[13],48.2 µM (inactive)
same,GI50,[14],39.4 µM (inactive)
same,GI50,[15],48.4 µM (inactive)
same,GI50,[16],> 100 µM (inactive)
same,GI50,[17],68.7 µM (inactive)
same,GI50,[18],> 100 µM (inactive)
same,GI50,[19],26.4 µM (inactive)
same,GI50,[20],20.5 µM (inactive)
same,GI50,[58],20.9 µM (inactive)
same,GI50,[21],33 µM (inactive)
same,GI50,[22],> 100 µM (inactive)
same,GI50,[24],32 µM (inactive)
same,GI50,[25],34.4 µM (inactive)
same,GI50,[26],56.8 µM (inactive)
same,GI50,[27],21.9 µM (inactive)
same,GI50,[28],> 100 µM (inactive)
same,GI50,[29],70.8 µM (inactive)
same,GI50,[30],29.3 µM (inactive)
same,GI50,[31],35 µM (inactive)
same,GI50,[32],33.7 µM (inactive)
same,GI50,[33],> 100 µM (inactive)
same,GI50,[34],63.4 µM (inactive)
same,GI50,[35],70.8 µM (inactive)
same,GI50,[36],27.3 µM (inactive)
same,GI50,[38],34.5 µM (inactive)
same,GI50,[39],> 100 µM (inactive)
same,GI50,[40],24.5 µM (inactive)
same,GI50,[41],76.6 µM (inactive)
same,GI50,[42],> 100 µM (inactive)
same,GI50,[43],48.4 µM (inactive)
same,GI50,[45],55.3 µM (inactive)
same,GI50,[46],> 100 µM (inactive)
same,GI50,[47],> 100 µM (inactive)
same,GI50,[48],30.7 µM (inactive)
same,GI50,[49],17.8 µM (inactive)
same,GI50,[51],> 100 µM (inactive)
same,GI50,[52],54.5 µM (inactive)
same,GI50,[53],27.1 µM (inactive)
same,GI50,[54],21.2 µM (inactive)
same,GI50,[55],34.9 µM (inactive)
same,GI50,[56],45.1 µM (inactive)
same,GI50,[57],> 100 µM (inactive)
